How the values were obtained:
[1] = test system: KRas-mediated phosphorylation of ERK in AsPC-1 cells; assay: Inhibition of KRas-mediated phosphorylation of ERK (Cisbio HTRF pERK), AsPC-1 cells; assay type: cell-based; details: Homo sapiens, ASPC1, AsPC-1 cells; HTRF pERK
Outline: (§1)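 6,000 cells/well; cpd 10 uM top, 3-fold x10, 0.8% DMSO final; 3 hr incubation; Min ctrl Trametinib 0.2 uM; lysis 40 min 4° C shaking; d2 + Cryptate Ab mix, 2 hr RT; HTRF read.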

[2] = test system: KRas-mediated phosphorylation of ERK in H2009 cells; assay: Inhibition of KRas-mediated phosphorylation of ERK (Cisbio HTRF pERK), H2009 cells; assay type: cell-based; details: Homo sapiens, NCI-H2009
Experimental: Inhibition of KRas Phosphorylation of ERK (HTRF) by Exemplary Compounds of Formula (I)
Cisbio HTRF Advanced PERK Assay Catalog #64AERPEH
1. To harvest cells from flask using 0.05% Trypsin/EDTA solution. Add 10 mL of media to stop trypsinizing. Pipette the cells into a conical bottom 50 mL centrifuge tube and centrifuge 5 min×1000 rpm.
2. Re-suspend the cell pellet in media, take a cell count, and then adjust the cell density using fresh media.
3. Seed 6,000 cells into cell culture plate with 50 μL media. […]
4. Incubate cell plate overnight in a 37° C., 5% CO2 incubator.
1. Use Tecan to complete the compound addition. Compounds start from 10 uM top, 3-fold dilution, and 10 doses. The final DMSO concentration is 0.8%. Dispensed 0.2 uM Trametinib as Min control.
2. Incubate cell plate for 3 hrs in the incubator.
Detection with Cisbio pERK HTRF Kit
1. Dilute 1 volume of 4× lysis buffer with 3 volumes of deionized water. Then, add 100× the blocking reagent. Keep lysis buffer on the ice.
2. At the end of the compound treatment, flick-off the media.
3. Add 35 μL of lysis buffer per well using a Multidrop Combi. Then place on a plate agitator shaking at 300 rpm at 4° C. for 40 mins.
4. Make up the HTRF antibody buffer. For each assay plate, mix 50 μL of d2-conjugate antibody with 950 μL of detection buffer. Similarly, mix 50 μL of Cryptate antibody with 950 μL of detection buffer. Then mix the two diluted antibodies together.
5. Dispense 3.4 μL the antibody buffer to wells of an empty assay plate. Seal the plate and centrifuge plate 30 sec×1000 rpm.
6. At the end of the 4° C. lysis, centrifuge the lysate plates 3 mins×1500 rpm.
7. Use the Bravo to transfer 13.6 μL of lysate from cell culture plate to assay plate. Then incubate assay plate for 2 hrs at room temperature.
8. At the end of incubation, read plate on the Envision after centrifuging plate 30 sec×1000 rpm.

KRas^G12C = target: T1, KRas^G12C (Homo sapiens, UniProt P01116, G12C); assay: KRas binding assay (TR-FRET tracer displacement), KRas G12C; details: TR-FRET tracer displacement, KRas G12C
T1 construct: Biotinylated KRas (corresponding to amino acids 1-169, produced at Accelegan Inc.); biotin (biotinylated); purchased Accelegan Inc

KRas^WT = target: T2, KRas^WT (Homo sapiens, UniProt P01116); assay: KRas binding assay (TR-FRET tracer displacement), KRas WT; details: TR-FRET tracer displacement, KRas WT
T2 construct: Biotinylated KRas (corresponding to amino acids 1-169, produced at Accelegan Inc.); biotin (biotinylated); purchased Accelegan Inc

[3] = test system: KRas-mediated phosphorylation of ERK in H460 cells; assay: Inhibition of KRas-mediated phosphorylation of ERK (Cisbio HTRF pERK), H460 cells; assay type: cell-based; details: Homo sapiens, NCI-H460, HTRF pERK
Outline: as §1

KRas^G12V = target: T3, KRas^G12V (Homo sapiens, UniProt P01116, G12V); assay: KRas binding assay (TR-FRET tracer displacement), KRas G12V
T3 construct: Biotinylated KRas (corresponding to amino acids 1-169, produced at Accelegan Inc.); biotin (biotinylated); purchased Accelegan Inc

KRas^G12D = target: T4, KRas^G12D (Homo sapiens, UniProt P01116, G12D); assay: KRas binding assay (TR-FRET tracer displacement), KRas G12D
T4 construct: Biotinylated KRas (corresponding to amino acids 1-169, produced at Accelegan Inc.); biotin (biotinylated); purchased Accelegan Inc

[4] = test system: KRas-mediated phosphorylation of ERK in MKN1 cells; assay: Inhibition of KRas-mediated phosphorylation of ERK (Cisbio HTRF pERK), MKN1 cells; assay type: cell-based; details: Homo sapiens, MKN-1
Outline: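 Day 1 seeding: 6,000 cells per well, RPMI/10% FBS, left overnight at 37° C. with 5% CO2. Plates then stood covered for 4 h at room temperature prior to HTRF detection of pERK.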

[5] = test system: KRas-mediated phosphorylation of ERK in H358 cells; assay: Inhibition of KRas-mediated phosphorylation of ERK (Cisbio HTRF pERK), H358 cells; assay type: cell-based; details: Homo sapiens, NCI-H358, HTRF pERK
Outline: as §1

[6] = test system: KRas-mediated phosphorylation of ERK in HCT116 cells; assay: Inhibition of KRas-mediated phosphorylation of ERK (Cisbio HTRF pERK), HCT116 cells; assay type: cell-based; details: Homo sapiens, HCT-116, HTRF pERK
Outline: (§2)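 Min control wells contained 0.2 uM Trametinib, while test compounds ran as 10 doses (3-fold, top 10 uM; 0.8% DMSO final) on cells for 3 hrs. After 40 mins lysis at 4° C, lysates were probed with HTRF antibodies for 2 hrs at room temperature.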

[7] = test system: KRas-mediated phosphorylation of ERK in H727 cells; assay: Inhibition of KRas-mediated phosphorylation of ERK (Cisbio HTRF pERK), H727 cells; assay type: cell-based; details: Homo sapiens, NCI-H727, H727 cells; HTRF pERK
Outline: as §1

KRas^G12S = target: T5, KRas^G12S (Homo sapiens, UniProt P01116, G12S); assay: KRas binding assay (TR-FRET tracer displacement), KRas G12S; details: TR-FRET tracer displacement, KRas G12S
T5 construct: Biotinylated KRas (corresponding to amino acids 1-169, produced at Accelegan Inc.); biotin (biotinylated); purchased Accelegan Inc

[8] = test system: KRas-mediated phosphorylation of ERK in A549 cells; assay: Inhibition of KRas-mediated phosphorylation of ERK (Cisbio HTRF pERK), A549 cells; assay type: cell-based; details: Homo sapiens, HTRF pERK
Outline: as §2

T1 sequence (P01116 1-169 isoform P01116-2 G12C): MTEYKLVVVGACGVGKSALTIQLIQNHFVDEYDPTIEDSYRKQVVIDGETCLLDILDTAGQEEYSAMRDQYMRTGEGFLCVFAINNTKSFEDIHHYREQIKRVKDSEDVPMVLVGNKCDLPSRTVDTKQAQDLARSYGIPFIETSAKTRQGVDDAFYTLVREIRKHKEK
T3 sequence (P01116 1-169 isoform P01116-2 G12V): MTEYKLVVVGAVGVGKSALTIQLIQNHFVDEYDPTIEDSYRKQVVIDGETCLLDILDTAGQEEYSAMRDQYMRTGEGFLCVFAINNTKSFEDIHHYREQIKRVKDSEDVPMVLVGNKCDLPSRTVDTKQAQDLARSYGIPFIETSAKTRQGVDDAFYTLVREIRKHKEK
T5 sequence (P01116 1-169 isoform P01116-2 G12S): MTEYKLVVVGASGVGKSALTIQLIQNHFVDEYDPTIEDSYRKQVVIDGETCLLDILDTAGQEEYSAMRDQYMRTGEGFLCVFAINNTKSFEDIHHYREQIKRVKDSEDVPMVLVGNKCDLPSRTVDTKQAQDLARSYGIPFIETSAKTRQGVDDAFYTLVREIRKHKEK
T2 sequence (P01116 1-169 isoform P01116-2): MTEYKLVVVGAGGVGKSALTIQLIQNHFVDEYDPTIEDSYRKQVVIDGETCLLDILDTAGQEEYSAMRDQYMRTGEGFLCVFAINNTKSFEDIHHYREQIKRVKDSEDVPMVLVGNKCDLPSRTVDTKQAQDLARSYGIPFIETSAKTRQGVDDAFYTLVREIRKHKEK
T4 sequence (P01116 1-169 isoform P01116-2 G12D): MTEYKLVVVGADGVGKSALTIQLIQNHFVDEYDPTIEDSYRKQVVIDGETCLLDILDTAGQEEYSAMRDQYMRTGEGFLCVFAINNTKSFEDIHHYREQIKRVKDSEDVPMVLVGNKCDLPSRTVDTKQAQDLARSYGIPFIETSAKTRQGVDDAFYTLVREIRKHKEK

C[C@@H]1C[C@@H]1c1c(Cl)cc(O)cc1-c1ncc2c(N3CC4CCC(C3)N4)nc(OC[C@@]34CCCN3C/C(=C\F)C4)nc2c1F [Example 806, 3-(4-(3,8-diazabicyclo[3.2.1]octan-3-yl)-8-fluoro-2-(((S,Z)-2-(fluoromethylene)tetrahydro-1H-pyrrolizin-7a(5H)-yl)methoxy)pyrido[4,3-d]pyrimidin-7-yl)-5-chloro-4-(cis-2-methylcyclopropyl)phenol]
IC50 [1]: 2 nM | IC50 [2]: 29 nM | IC50 (KRas^G12C): 3 nM | IC50 (KRas^WT): 4 nM | IC50 [3]: 107 nM | IC50 (KRas^G12V): 4 nM | IC50 (KRas^G12D): < 2 nM | IC50 [4]: 19 nM | IC50 [5]: 43 nM | IC50 [6]: 129 nM | IC50 [7]: 364 nM | IC50 (KRas^G12S): 2 nM | IC50 [8]: 139 nM

C/C=C1\CN2CCCC2(COc2nc(N3C[C@@H]4C[C@H](C3)[C@H](O)C4)c3cnc(-c4cc(O)cc5ccc(F)c(CC)c45)c(F)c3n2)C1 (stereo partly drawn) [Example 938, (1R,5R,6R)-3-(7-(8-ethyl-7-fluoro-3-hydroxynaphthalen-1-yl)-2-(((Z)-2-ethylidenetetrahydro-1H-pyrrolizin-7a(5H)-yl)methoxy)-8-fluoropyrido[4,3-d]pyrimidin-4-yl)-3-azabicyclo[3.2.1]octan-6-ol]
IC50 [1]: 9 nM | IC50 [2]: 1 nM | IC50 (KRas^G12C): < 2 nM | IC50 (KRas^WT): < 2 nM | IC50 [3]: 4 nM | IC50 (KRas^G12V): < 2 nM | IC50 (KRas^G12D): < 2 nM | IC50 [4]: 0.2 nM | IC50 [5]: 1 nM | IC50 [6]: 7 nM | IC50 [7]: 4 nM | IC50 (KRas^G12S): < 2 nM | IC50 [8]: 3 nM

C=C1CN2CCCC2(COc2nc(N3CCCC4(CCO4)C3)c3cnc(-c4cc(O)cc5ccc(F)c(CC)c45)c(F)c3n2)C1 (stereo not drawn) [Example 941, 5-ethyl-6-fluoro-4-(8-fluoro-2-((2-methylenetetrahydro-1H-pyrrolizin-7a(5H)-yl)methoxy)-4-(1-oxa-6-azaspiro[3.5]nonan-6-yl)pyrido[4,3-d]pyrimidin-7-yl)naphthalen-2-ol]
IC50 [1]: 1 nM | IC50 [2]: 1 nM | IC50 (KRas^G12C): < 2 nM | IC50 (KRas^WT): < 2 nM | IC50 [3]: 2 nM | IC50 (KRas^G12V): < 2 nM | IC50 (KRas^G12D): < 2 nM | IC50 [4]: 0.1 nM | IC50 [5]: 1 nM | IC50 [6]: 3 nM | IC50 [7]: 2 nM | IC50 (KRas^G12S): < 2 nM | IC50 [8]: 2 nM
